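Compound exposure: 48 hours, 5 concentrations, 96-well plates. GI50: concentration for 50% inhibition of growth. TGI: concentration producing complete growth inhibition.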
Key:
Test in all cases: NCI anticancer screen, dose series, 48 h
COLO 205 colon = system: COLO 205 colon
HL-60(TB) leukemia = system: HL-60(TB) leukemia
HOP-62 NSCLC = system: HOP-62 NSCLC
SN12C renal = system: SN12C renal
TK-10 renal = system: TK-10 renal
EKVX NSCLC = system: EKVX NSCLC
A498 renal = system: A498 renal
786-0 renal = system: 786-0 renal
RXF 393 renal = system: RXF 393 renal
SK-MEL-28 melanoma = system: SK-MEL-28 melanoma
SNB-19 CNS = system: SNB-19 CNS
CCRF-CEM leukemia = system: CCRF-CEM leukemia
HCC-2998 colon = system: HCC-2998 colon
HCT-116 colon = system: HCT-116 colon
SF-268 CNS = system: SF-268 CNS
DU-145 prostate = system: DU-145 prostate
OVCAR-4 ovarian = system: OVCAR-4 ovarian
SF-539 CNS = system: SF-539 CNS
SK-MEL-2 melanoma = system: SK-MEL-2 melanoma
SK-OV-3 ovarian = system: SK-OV-3 ovarian
SK-MEL-5 melanoma = system: SK-MEL-5 melanoma
SNB-75 CNS = system: SNB-75 CNS
BT-549 breast = system: BT-549 breast
HS 578T breast = system: HS 578T breast
SW-620 colon = system: SW-620 colon
SF-295 CNS = system: SF-295 CNS
SR leukemia = system: SR leukemia
PC-3 prostate = system: PC-3 prostate
RPMI-8226 leukemia = system: RPMI-8226 leukemia
NCI-H23 lung = system: NCI-H23 lung
T-47D breast = system: T-47D breast
NCI-H226 lung = system: NCI-H226 lung
NCI-H460 lung = system: NCI-H460 lung
HT29 colon = system: HT29 colon
A549 NSCLC = system: A549 NSCLC
M14 melanoma = system: M14 melanoma
NCI/ADR-RES ovarian = system: NCI/ADR-RES ovarian
OVCAR-5 ovarian = system: OVCAR-5 ovarian
ACHN renal = system: ACHN renal
HOP-92 NSCLC = system: HOP-92 NSCLC
OVCAR-3 ovarian = system: OVCAR-3 ovarian
KM12 colon = system: KM12 colon
OVCAR-8 ovarian = system: OVCAR-8 ovarian
MOLT-4 leukemia = system: MOLT-4 leukemia
U251 CNS = system: U251 CNS
K-562 leukemia = system: K-562 leukemia
CAKI-1 renal = system: CAKI-1 renal
MDA-MB-435 = system: MDA-MB-435
MDA-MB-231 breast = system: MDA-MB-231 breast
MALME-3M melanoma = system: MALME-3M melanoma
LOX IMVI melanoma = system: LOX IMVI melanoma
IGROV1 ovarian = system: IGROV1 ovarian
UACC-257 melanoma = system: UACC-257 melanoma
MCF7 breast = system: MCF7 breast
HCT-15 colon = system: HCT-15 colon
UACC-62 melanoma = system: UACC-62 melanoma

Q: How did the GI50 (COLO 205 colon) turn out when `COc1cc2c3c(n(CCCN(CCO)CCO)c(=O)c2cc1OC)-c1cc2c(cc1C3=O)OCO2` was run?
A: The GI50 was 218 nM.

Q: And the TGI (COLO 205 colon)?
A: Its TGI is 12.7 µM.

Q: And the GI50 (HL-60(TB) leukemia)?
A: Its GI50 is under 10 nM.

Q: And the TGI (HL-60(TB) leukemia)?
A: The TGI was 2290 nM.

Q: And the GI50 (HOP-62 NSCLC)?
A: The GI50 was under 10 nM.

Q: And the GI50 (SN12C renal)?
A: The GI50 was under 10 nM.

Q: What about the TGI (SN12C renal) of the same compound?
A: The TGI was 285 nM.

Q: What about the GI50 (TK-10 renal) of the same compound?
A: The GI50 was 1230 nM.

Q: And the TGI (TK-10 renal)?
A: Its TGI is 6.02 µM.

Q: What about the GI50 (EKVX NSCLC) of the same compound?
A: The GI50 was 887 nM.

Q: And the TGI (EKVX NSCLC)?
A: Its TGI is 13.6 µM.

Q: And the GI50 (A498 renal)?
A: The GI50 was under 10 nM.

Q: What about the TGI (A498 renal) of the same compound?
A: The TGI was 345 nM.

Q: What about the GI50 (786-0 renal) of the same compound?
A: Its GI50 is under 10 nM.

Q: What about the TGI (786-0 renal) of the same compound?
A: The TGI was 64.6 nM.

Q: And the GI50 (RXF 393 renal)?
A: The GI50 was 4.46 µM.

Q: What about the TGI (RXF 393 renal) of the same compound?
A: The TGI was over 100 µM.

Q: What about the GI50 (SK-MEL-28 melanoma) of the same compound?
A: The GI50 was 2270 nM.

Q: What about the TGI (SK-MEL-28 melanoma) of the same compound?
A: The TGI was 26.6 µM.

Q: And the GI50 (SNB-19 CNS)?
A: Its GI50 is 603 nM.

Q: What about the TGI (SNB-19 CNS) of the same compound?
A: The TGI was over 35.5 µM.

Q: And the GI50 (CCRF-CEM leukemia)?
A: Its GI50 is under 10 nM.

Q: What about the GI50 (HCC-2998 colon) of the same compound?
A: The GI50 was under 10 nM.

Q: And the TGI (HCC-2998 colon)?
A: Its TGI is under 10 nM.

Q: What about the GI50 (HCT-116 colon) of the same compound?
A: The GI50 was under 10 nM.

Q: What about the TGI (HCT-116 colon) of the same compound?
A: The TGI was 67.9 nM.

Q: And the GI50 (SF-268 CNS)?
A: The GI50 was under 33.2 nM.

Q: What about the TGI (SF-268 CNS) of the same compound?
A: Its TGI is 7.26 µM.

Q: What about the GI50 (DU-145 prostate) of the same compound?
A: Its GI50 is under 10 nM.

Q: What about the TGI (DU-145 prostate) of the same compound?
A: Its TGI is 1270 nM.

Q: And the GI50 (OVCAR-4 ovarian)?
A: The GI50 was 842 nM.

Q: And the TGI (OVCAR-4 ovarian)?
A: The TGI was 3.61 µM.

Q: What about the GI50 (SF-539 CNS) of the same compound?
A: Its GI50 is under 10 nM.

Q: What about the TGI (SF-539 CNS) of the same compound?
A: The TGI was under 26.4 nM.

Q: What about the GI50 (SK-MEL-2 melanoma) of the same compound?
A: The GI50 was 8.79 µM.

Q: What about the TGI (SK-MEL-2 melanoma) of the same compound?
A: The TGI was over 33 µM.

Q: And the GI50 (SK-OV-3 ovarian)?
A: Its GI50 is 2220 nM.

Q: What about the TGI (SK-OV-3 ovarian) of the same compound?
A: The TGI was 34.9 µM.

Q: And the GI50 (SK-MEL-5 melanoma)?
A: Its GI50 is under 15.9 nM.

Q: And the TGI (SK-MEL-5 melanoma)?
A: Its TGI is 413 nM.

Q: What about the GI50 (SNB-75 CNS) of the same compound?
A: The GI50 was 81.1 nM.

Q: What about the TGI (SNB-75 CNS) of the same compound?
A: The TGI was 2190 nM.

Q: And the GI50 (BT-549 breast)?
A: The GI50 was 586 nM.

Q: And the TGI (BT-549 breast)?
A: The TGI was 13.6 µM.

Q: And the GI50 (HS 578T breast)?
A: The GI50 was 1660 nM.

Q: And the TGI (HS 578T breast)?
A: The TGI was 13 µM.

Q: And the GI50 (SW-620 colon)?
A: The GI50 was under 10 nM.

Q: What about the TGI (SW-620 colon) of the same compound?
A: Its TGI is 1710 nM.

Q: What about the GI50 (SF-295 CNS) of the same compound?
A: The GI50 was under 10 nM.

Q: What about the TGI (SF-295 CNS) of the same compound?
A: The TGI was 288 nM.

Q: What about the GI50 (SR leukemia) of the same compound?
A: Its GI50 is under 10 nM.

Q: What about the TGI (SR leukemia) of the same compound?
A: The TGI was under 10 nM.

Q: What about the TGI (PC-3 prostate) of the same compound?
A: The TGI was 2120 nM.

Q: What about the GI50 (RPMI-8226 leukemia) of the same compound?
A: Its GI50 is under 10 nM.

Q: What about the TGI (RPMI-8226 leukemia) of the same compound?
A: Its TGI is 207 nM.

Q: What about the GI50 (NCI-H23 lung) of the same compound?
A: Its GI50 is under 10 nM.

Q: What about the TGI (NCI-H23 lung) of the same compound?
A: The TGI was 139 nM.

Q: What about the GI50 (T-47D breast) of the same compound?
A: The GI50 was 144 nM.

Q: And the TGI (T-47D breast)?
A: Its TGI is over 22.7 µM.

Q: And the GI50 (NCI-H226 lung)?
A: The GI50 was 37.7 nM.

Q: And the TGI (NCI-H226 lung)?
A: The TGI was 724 nM.

Q: What about the GI50 (NCI-H460 lung) of the same compound?
A: Its GI50 is under 10 nM.

Q: And the TGI (NCI-H460 lung)?
A: The TGI was 2280 nM.

Q: What about the GI50 (HT29 colon) of the same compound?
A: The GI50 was under 10 nM.

Q: What about the TGI (HT29 colon) of the same compound?
A: Its TGI is 1030 nM.

Q: And the GI50 (A549 NSCLC)?
A: Its GI50 is 155 nM.

Q: And the TGI (A549 NSCLC)?
A: The TGI was 13 µM.

Q: What about the GI50 (M14 melanoma) of the same compound?
A: The GI50 was under 10 nM.

Q: What about the TGI (M14 melanoma) of the same compound?
A: The TGI was 170 nM.

Q: What about the GI50 (NCI/ADR-RES ovarian) of the same compound?
A: Its GI50 is 117 nM.

Q: And the GI50 (OVCAR-5 ovarian)?
A: Its GI50 is 209 nM.

Q: And the TGI (OVCAR-5 ovarian)?
A: Its TGI is 1310 nM.

Q: And the GI50 (ACHN renal)?
A: Its GI50 is under 10 nM.

Q: And the TGI (ACHN renal)?
A: The TGI was 85.5 nM.

Q: What about the TGI (HOP-92 NSCLC) of the same compound?
A: The TGI was 4.18 µM.

Q: What about the GI50 (OVCAR-3 ovarian) of the same compound?
A: The GI50 was 62 nM.

Q: And the TGI (OVCAR-3 ovarian)?
A: The TGI was 295 nM.

Q: What about the GI50 (KM12 colon) of the same compound?
A: The GI50 was 365 nM.

Q: And the TGI (KM12 colon)?
A: Its TGI is 1840 nM.

Q: And the GI50 (OVCAR-8 ovarian)?
A: Its GI50 is 221 nM.

Q: What about the TGI (OVCAR-8 ovarian) of the same compound?
A: The TGI was 6.01 µM.

Q: What about the GI50 (MOLT-4 leukemia) of the same compound?
A: The GI50 was under 10 nM.

Q: What about the TGI (MOLT-4 leukemia) of the same compound?
A: The TGI was under 10 nM.

Q: What about the GI50 (U251 CNS) of the same compound?
A: The GI50 was under 10 nM.

Q: What about the TGI (U251 CNS) of the same compound?
A: The TGI was 628 nM.

Q: And the GI50 (K-562 leukemia)?
A: Its GI50 is under 10 nM.

Q: What about the GI50 (CAKI-1 renal) of the same compound?
A: The GI50 was under 10 nM.

Q: What about the TGI (CAKI-1 renal) of the same compound?
A: Its TGI is under 18 nM.

Q: What about the GI50 (MDA-MB-435) of the same compound?
A: The GI50 was under 36.9 nM.

Q: What about the TGI (MDA-MB-435) of the same compound?
A: The TGI was 842 nM.

Q: And the GI50 (MDA-MB-231 breast)?
A: The GI50 was 583 nM.

Q: And the TGI (MDA-MB-231 breast)?
A: Its TGI is 2420 nM.

Q: And the GI50 (MALME-3M melanoma)?
A: The GI50 was 670 nM.

Q: What about the TGI (MALME-3M melanoma) of the same compound?
A: Its TGI is 23.4 µM.

Q: What about the GI50 (LOX IMVI melanoma) of the same compound?
A: Its GI50 is under 10 nM.

Q: What about the TGI (LOX IMVI melanoma) of the same compound?
A: The TGI was 158 nM.

Q: And the TGI (IGROV1 ovarian)?
A: The TGI was over 100 µM.

Q: What about the GI50 (UACC-257 melanoma) of the same compound?
A: Its GI50 is 1550 nM.

Q: What about the TGI (UACC-257 melanoma) of the same compound?
A: The TGI was over 22.5 µM.

Q: What about the GI50 (MCF7 breast) of the same compound?
A: Its GI50 is under 10 nM.

Q: And the TGI (MCF7 breast)?
A: The TGI was over 24.7 µM.

Q: What about the GI50 (HCT-15 colon) of the same compound?
A: Its GI50 is 838 nM.

Q: What about the TGI (HCT-15 colon) of the same compound?
A: Its TGI is 20.7 µM.

Q: What about the GI50 (UACC-62 melanoma) of the same compound?
A: Its GI50 is under 10 nM.

Q: What about the TGI (UACC-62 melanoma) of the same compound?
A: Its TGI is 503 nM.
